Each molecule was assayed against T1, Btk (human, full length) (Homo sapiens, UniProt Q06187) (assay: Btk in vitro kinase activity assay (32P-ATP, poly[Glu:Tyr])). Conditions: 30 min pre-incubation with inhibitor, 5 nM Btk.
T1 construct: Btk (human, full length) was purchased (Invitrogen, catalog number PV3363); purchased Invitrogen PV3363
Format: biochemical
Procedure: General Procedure for Btk In Vitro Kinase Activity Assay.
Btk (human, full length) was purchased (Invitrogen, catalog number PV3363) and used following a procedure modified from the product literature. […] Subsequently, Btk (5 nM final concentration) in kinase assay buffer supplemented with BSA (0.1 mg/mL) was pre-incubated with inhibitors (six or ten concentrations, in duplicate, 5% DMSO final concentration) for 30 minutes at room temperature. Kinase reactions were initiated by the addition of 0.16 μCi/μL of γ-^32P-ATP (6000 Ci/mmol, NEN) and 0.2 mg/mL substrate (poly[Glu:Tyr], 4:1 Glu:Tyr) and incubated for 30 minutes at room temperature. Kinase activity was determined by spotting 5 μL of each reaction onto sheets of phosphocellulose. Each blot was washed once with 10% AcOH solution, twice with 0.1% H3PO4 solution, and once with MeOH (5-10 minutes per wash). Dried blots were exposed for 30 minutes to a storage phosphor screen and scanned by a Typhoon imager (GE Life Sciences). The data were quantified using ImageQuant (v. 5.2, Molecular Dynamics) and plotted using GraphPad Prism 4.0 software.

T1 sequence (Q06187 whole entry): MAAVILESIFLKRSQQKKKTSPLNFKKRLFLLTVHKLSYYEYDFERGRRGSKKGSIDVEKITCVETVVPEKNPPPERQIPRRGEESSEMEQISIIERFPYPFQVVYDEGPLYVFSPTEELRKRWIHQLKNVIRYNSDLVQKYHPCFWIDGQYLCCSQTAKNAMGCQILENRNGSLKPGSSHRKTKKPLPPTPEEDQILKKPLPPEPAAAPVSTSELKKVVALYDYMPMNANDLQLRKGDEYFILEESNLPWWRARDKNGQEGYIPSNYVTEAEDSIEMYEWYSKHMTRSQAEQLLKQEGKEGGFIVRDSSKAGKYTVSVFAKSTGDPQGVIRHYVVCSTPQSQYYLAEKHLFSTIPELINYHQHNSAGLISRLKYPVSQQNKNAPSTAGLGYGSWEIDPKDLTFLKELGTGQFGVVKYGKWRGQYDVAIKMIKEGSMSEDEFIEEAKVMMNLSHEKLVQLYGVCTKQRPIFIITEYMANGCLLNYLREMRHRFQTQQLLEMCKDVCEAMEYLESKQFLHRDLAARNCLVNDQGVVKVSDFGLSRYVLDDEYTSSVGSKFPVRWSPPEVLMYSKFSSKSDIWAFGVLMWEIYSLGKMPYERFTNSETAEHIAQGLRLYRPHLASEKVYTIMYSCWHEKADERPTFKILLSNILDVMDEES

| IC50 | SMILES |
| --- | --- |
| < 1000 nM | N#C/C(=C\C1CC1)C(=O)N1CCC(Cn2nc(-c3ccc(Oc4ccccc4)cc3)c3c(N)ncnc32)CC1 |
| < 100 nM | N#C/C(=C\c1ccccc1)C(=O)N1CCCC(n2nc(-c3ccc(Oc4ccccc4)cc3)c3c(N)ncnc32)C1 (centres unmarked) |
| < 1000 nM | N#C/C(=C\C1CC1)C(=O)N1CCC(n2nc(-c3ccc(Oc4ccccc4)cc3)c3c(N)ncnc32)CC1 |
| < 1000 nM | N#C/C(=C\C1CC1)C(=O)N1CC[C@H](n2nc(-c3ccc(Oc4ccccc4)cc3)c3c(N)ncnc32)C1 |
| < 100 nM | N#C/C(=C\c1ccccc1Cl)C(=O)N1CCCC(n2nc(-c3ccc(Oc4ccccc4)cc3)c3c(N)ncnc32)C1 (centres unmarked) |
| < 1000 nM | N#C/C(=C\C1CC1)C(=O)N1CCCC(Cn2nc(-c3ccc(Oc4ccccc4)cc3)c3c(N)ncnc32)C1 (centres unmarked) [drawing 184] |
| < 100 nM | CN(C)C(C)(C)/C=C(\C#N)C(=O)N1CCC[C@@H](n2nc(-c3ccc(Oc4ccccc4)cc3)c3c(N)ncnc32)C1 |

Continued, molecule first:

| SMILES | IC50 |
| --- | --- |
| N#C/C(=C\C1CC1)C(=O)N1CC[C@@H](n2nc(-c3ccc(Cl)cc3)c3c(N)ncnc32)C1 | < 100 nM |
| N#C/C(=C\C1CC1)C(=O)N1CC[C@@H](n2nc(-c3ccc(Oc4ccccc4)cc3)c3c(N)ncnc32)C1 | < 1000 nM |
| N#C/C(=C\C1CC1)C(=O)N[C@H]1CC[C@@H](n2nc(-c3ccc(Oc4ccccc4)cc3)c3c(N)ncnc32)CC1 | < 1000 nM |
| CC(C)(/C=C(\C#N)C(=O)N1CCC[C@@H](n2nc(-c3ccc(Oc4ccccc4)cc3)c3c(N)ncnc32)C1)CO | < 1000 nM |
| N#C/C(=C\C1CC1)C(=O)N1CCCC(n2nc(-c3ccc(Cl)cc3)c3c(N)ncnc32)C1 (centres unmarked) | < 100 nM |

The molecules below were run against BTK (Homo sapiens, UniProt Q06187) (assay: Reversibility of binding: compound in solution before and after perturbation of the target (HPLC-MS/MS)). Conditions: after 5 M guanidine hydrochloride denaturation and trypsin digestion.
Procedure: The following approach was developed to differentiate compounds that form irreversible bonds with their targets, such as acrylamide compounds, from compound that bind reversibly. […] The reactions were then treated with perturbations including both denaturation with 5 M guanidine hydrochloride and digestion with trypsin, disrupting proper folding of the target. […] The concentration of compound in solution was assessed both preceding and following perturbation using high performance liquid chromatography (HPLC) coupled to tandem mass spectrometry.

Chain of BTK (Q06187 whole entry): as above

| Compound in solution in the denatured or digested state? | SMILES |
| --- | --- |
| yes | N#C/C(=C\C1CC1)C(=O)N1CCCC(Cn2nc(-c3ccc(Oc4ccccc4)cc3)c3c(N)ncnc32)C1 (centres unmarked) [drawing 187] |

Same assay, conditions: protein target in excess over compound, native state

| Compound in solution in the native state? | SMILES |
| --- | --- |
| no | N#C/C(=C\C1CC1)C(=O)N1CCCC(Cn2nc(-c3ccc(Oc4ccccc4)cc3)c3c(N)ncnc32)C1 (centres unmarked) [drawing 187] |

From patent US9580427B2, “Kinase inhibitors” (The Regents of the University of California, priority 2011, dated 2017)
